This note sets out measurements from ChEMBL document CHEMBL1201862, “PubChem BioAssay data set” (2004).

Assay [1] in a line: HEK293T cytotoxicity, dose response, cytotoxicity control for miR-122 modulator project, cell-based, inhibitor set, cherry-pick, set 2 (AID 720697). Format: functional.
The subject of the next assay is Cryptococcus neoformans. Description: PubChem AID 686997. Format: functional, organism-based.
Assay [2] can be described thus: HEK293T cell cytotoxicity, dose response, cytotoxicity control for HIV Vif inhibitor project, cherry-picks (AID 652208). The format is functional, cell-based.
A short description of assay [3]: cells. The format is functional, cell-based.
Assay [4] deals with Photoreceptor-specific nuclear receptor (Homo sapiens, UniProt Q9Y5X4). The format is functional, cell-based.
Assay [5] concerns the target Nuclear receptor subfamily 0 group B member 1 (Homo sapiens, UniProt P51843). Format: functional, cell-based.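 Also: HEK293T cells transfected with SF-1 and DAX-1 plus StAR promoter luciferase reporter.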
Assay [6] can be described thus: cells.
For assay [7], the target named is T1, Oxysterols receptor LXR-beta (Homo sapiens, UniProt P55055).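 Also: Cell-based luminescence dose-response assay of agonist activity at LXR, run as a confirmatory counterscreen to a daf-12 agonist screen; HEK293 cells with Gal4-LXR fusion and GAL4-driven luciferase reporter; agonist potency from rising luciferase signal of a Gal4-LXR reporter.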
T1 sequence (P55055 whole entry): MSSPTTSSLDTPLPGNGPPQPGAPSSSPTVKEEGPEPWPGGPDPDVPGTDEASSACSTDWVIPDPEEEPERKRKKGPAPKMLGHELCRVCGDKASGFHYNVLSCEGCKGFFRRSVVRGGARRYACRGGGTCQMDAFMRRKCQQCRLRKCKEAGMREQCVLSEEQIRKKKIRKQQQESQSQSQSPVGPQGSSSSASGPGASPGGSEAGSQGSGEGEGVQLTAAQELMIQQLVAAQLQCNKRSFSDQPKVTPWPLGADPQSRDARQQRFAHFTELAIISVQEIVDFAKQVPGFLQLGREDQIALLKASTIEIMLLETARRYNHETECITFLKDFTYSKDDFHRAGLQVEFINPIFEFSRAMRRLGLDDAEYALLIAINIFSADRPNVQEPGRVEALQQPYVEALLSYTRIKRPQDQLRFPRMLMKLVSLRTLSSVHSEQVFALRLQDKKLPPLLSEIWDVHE
The format is functional, cell-based.

A short description of assay [8]: Counterscreen for […] of the human trace amine associated receptor 1 (TAAR1): Fluorescence-based cell-based high throughput dose response assay to identify nonselective Ga16 agonists. Format: functional.
The nature of assay [9]: Counterscreen for antagonists of the human trace amine associated receptor 1 (hTAAR1): Fluorescence-based cell-based high throughput dose response assay to identify nonselective Ga16 antagonists. Format: functional.
Assay [10] addresses T2, Insulin-degrading enzyme (Homo sapiens, UniProt P14735).
T2 sequence (P14735 whole entry): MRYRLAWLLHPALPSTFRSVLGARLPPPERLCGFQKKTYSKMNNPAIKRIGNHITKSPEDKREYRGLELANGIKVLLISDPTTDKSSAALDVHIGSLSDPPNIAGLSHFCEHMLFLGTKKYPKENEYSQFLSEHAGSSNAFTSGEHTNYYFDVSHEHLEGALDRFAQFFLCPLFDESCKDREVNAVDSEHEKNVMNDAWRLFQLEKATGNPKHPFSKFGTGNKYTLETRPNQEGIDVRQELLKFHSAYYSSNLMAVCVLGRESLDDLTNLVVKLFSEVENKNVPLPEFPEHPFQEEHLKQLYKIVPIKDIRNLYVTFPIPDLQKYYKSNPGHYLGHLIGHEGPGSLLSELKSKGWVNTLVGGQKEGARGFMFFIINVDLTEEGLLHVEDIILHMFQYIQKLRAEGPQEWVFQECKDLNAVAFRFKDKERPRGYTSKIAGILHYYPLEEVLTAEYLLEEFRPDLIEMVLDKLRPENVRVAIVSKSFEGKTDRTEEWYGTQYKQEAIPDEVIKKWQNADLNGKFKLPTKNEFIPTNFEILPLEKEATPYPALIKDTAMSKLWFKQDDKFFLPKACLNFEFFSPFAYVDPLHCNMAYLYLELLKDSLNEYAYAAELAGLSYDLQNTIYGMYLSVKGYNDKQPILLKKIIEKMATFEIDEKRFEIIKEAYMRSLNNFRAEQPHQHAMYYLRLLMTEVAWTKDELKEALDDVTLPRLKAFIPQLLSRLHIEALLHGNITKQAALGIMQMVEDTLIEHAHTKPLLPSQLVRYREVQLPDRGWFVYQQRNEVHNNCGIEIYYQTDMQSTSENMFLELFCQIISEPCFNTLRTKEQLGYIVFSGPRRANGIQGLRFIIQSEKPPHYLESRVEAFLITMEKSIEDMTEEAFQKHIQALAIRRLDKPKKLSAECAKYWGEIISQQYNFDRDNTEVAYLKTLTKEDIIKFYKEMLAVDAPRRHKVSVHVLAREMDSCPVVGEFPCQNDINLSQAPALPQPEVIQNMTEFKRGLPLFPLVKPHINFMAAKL
Kind of assay: activators of recombinant IDE enzyme, dose response, counter-screen for IDE activator project, biochemical, fluorescence polarization (AID 588681).

For assay [11], the target named is Beta-lactamase (Salmonella choleraesuis (strain SC-B67), UniProt Q5J463).
Assay [12] relates to HEK293. Kind of assay: HEK cell cytotoxicity by LDH release, dose response, cytotoxicity control for IDE activator project, fluorescence, HEK cells (AID 588440).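 Also: cytotoxicity by LDH release measuring loss of membrane integrity.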 Format: functional, cell-based. As to conditions: Homo sapiens.
The target in assay [13] is T3, Voltage-gated N-type calcium channel alpha-1B subunit/Amyloid beta A4 precursor protein-binding family A member 1 (Homo sapiens, UniProt Q00975+Q02410). Format: protein assay.
Assay [14] relates to HEK293. Kind of assay: optical interference in Abeta FP readout, dose response, artefact control for IDE activator project, biochemical, fluorescence polarization (AID 588442). To be noted: Homo sapiens. Format: functional, cell-based.
Another assay concerns the target ORF 73 (Human herpesvirus 8, UniProt O40947). Kind of assay: inhibitors of C-LANA binding to LBS DNA, dose response, biochemical, fluorescence polarization, cherry-picked samples (AID 504725).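 Also: fluorescence polarization of a labeled DNA duplex reporting LANA DNA binding; potency is for inhibitors that block LANA binding to the DNA.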 Set-up: species or system Human gammaherpesvirus 8.
The target in assay [15] is Beta-lactamase (Pseudomonas aeruginosa, UniProt Q79MP6).
The target in another assay is Keap1/Nrf2 (Homo sapiens, UniProt Q14145). Kind of assay: Keap1-Nrf2 protein-protein interaction inhibitors, dose response, biochemical, fluorescence polarization, cherry-picked samples (AID 588683).
Assay [16] has as its target T3, Voltage-gated N-type calcium channel alpha-1B subunit/Amyloid beta A4 precursor protein-binding family A member 1. Format: protein assay. This is another data set of the same source.
Assay [17] concerns the target T2, Insulin-degrading enzyme. Kind of assay: activators of endogenous IDE in HEK cells, dose response, cell-based, fluorescence polarization (AID 588439). The format is functional.
The nature of assay [18]: ZM109 Env clade C HIV-1 fusion inhibitors, dose response, HeLa effector, CEM target cells, luciferase, cherry-pick (AID 652058). The format is functional, cell-based.
Assay [19] in a line: CEM21 lymphoblast cell cytotoxicity, dose response, cytotoxicity control for viral fusion inhibitor project, CellTiter-Glo luminescence, cherry-picked (AID 652042).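 Also: potency for signal decrease meaning cytotoxicity.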 The format is functional, cell-based.
A short description of assay [20]: cytotoxicity in HEK-293T cells, dose response, cytotoxicity control for TCR NF-kB inhibitor project, luminescence, T-cell screen hits (AID 489026).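 Also: cells exposed to compound about 14 hours before the viability readout.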 Format: functional, cell-based.
Assay [21] is described as follows: inhibitors of clade B AD8 Env fusion, dose response, cell-based, cherry-pick (AID 652062).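 Also: luciferase signal from cell-cell fusion driven by HIV-1 clade B AD8 Env; potency is for inhibitors of fusion seen as a drop in luminescence.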 Format: functional.
Assay [22] is described as follows: cells. Format: functional, cell-based. This is another data set of the same source.
The subject of a further assay is BJ. Description: cytotoxicity toward Ras-transformed BJeLR fibroblasts, dose response, cell-based, alamar blue fluorescence, cherrypicked samples (AID 2631).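 Also: confirmatory dose-response assay in RAS-dependent BJ fibroblasts engineered with TERT, LT and ST, with cytotoxicity read by fluorescence.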 Format: functional. As to conditions: Homo sapiens.
Assay [23] in a line: off-target signal loss in HeLa-CEM21 co-culture – HeLa F-luc CTL cells, cherry-picked, counter-screen for HIV-1 Env fusion inhibitor project, dose response (AID 652040).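 Also: potency for signal decrease marking cytotoxic or nonspecific inhibition.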 Format: functional, cell-based.
The test system of another assay is INS1. Kind of assay: beta cell apoptosis inhibitors, cytokine rescue, dose response, luminescence, retest (AID 449756).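 Also: cell death triggered by IL-1 beta plus TNF-alpha plus IFN-gamma mixture; protective hits raise ATP signal compared with cytokine alone wells.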 Format: functional, cell-based. As to conditions: Rattus norvegicus.
Assay [24] is described as follows: inhibitors of HIV Env-driven cell fusion, dose response, cherry-pick (AID 652057). The format is functional, cell-based.
The subject of the next assay is SN12K1. Description: cells. As to conditions: Homo sapiens. Format: functional.
The test system of a further assay is P388. Kind of assay: cells. Format: functional. As to conditions: Mus musculus.
In a further assay the test system is P388/ADR. Kind of assay: cells. Format: functional. To be noted: Mus musculus.
Assay [25] can be described thus: cells. The format is functional, cell-based. The source holds these as a separate data set.
Assay [26] has as its target T4, Heat shock factor protein 1 (Mus musculus, UniProt P38532).
T4 sequence (P38532 whole entry): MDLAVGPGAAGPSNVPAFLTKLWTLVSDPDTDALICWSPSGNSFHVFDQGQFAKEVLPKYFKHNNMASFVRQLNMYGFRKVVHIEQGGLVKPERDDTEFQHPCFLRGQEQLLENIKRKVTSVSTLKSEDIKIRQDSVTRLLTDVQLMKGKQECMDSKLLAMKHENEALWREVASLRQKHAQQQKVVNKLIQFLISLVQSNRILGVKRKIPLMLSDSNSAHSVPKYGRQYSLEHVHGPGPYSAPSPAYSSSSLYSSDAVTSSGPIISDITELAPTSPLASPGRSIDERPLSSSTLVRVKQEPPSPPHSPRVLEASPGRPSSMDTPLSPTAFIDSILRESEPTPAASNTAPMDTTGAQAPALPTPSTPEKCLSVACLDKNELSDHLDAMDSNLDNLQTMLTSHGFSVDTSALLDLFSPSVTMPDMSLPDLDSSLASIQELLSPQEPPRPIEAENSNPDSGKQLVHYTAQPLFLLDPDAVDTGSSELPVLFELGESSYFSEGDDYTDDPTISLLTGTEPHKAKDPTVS
Description: HSF1 potentiators in luciferase reporter cells, confirmation, cell-based, NIH3T3, luminescence, dose retest (AID 435004).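 Also: stress induced by proteasome inhibitor MG132 added 30 min after compound; luciferase reporter driven by HSF1 response element in NIH3T3 cells; actives raise luminescence as potentiators of the MG132 stress response.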 The format is functional.

A further assay has as its target Paired box protein Pax-8 (Homo sapiens, UniProt Q06710). Description: inhibitors of PAX8-driven TPO luciferase reporter, dose response, RMG-I cells, cherry-pick (AID 687027).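 Also: luciferase reporter driven by Pax8 target thyroperoxidase promoter measured by SteadyGlo luminescence.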 The format is functional, cell-based.
The target in assay [27] is Long-chain-fatty-acid--AMP ligase FadD28 (Mycobacterium tuberculosis, UniProt P9WQ59). Kind of assay: Fluorescence polarization aasay to screen for inhibitors that compete for the binding of FadD28 to a bisubstrate Measured in Biochemical System Using Plate Reader - 2147-01_Inhibitor_Dose_CherryPick_Activity. The format is functional, Mycobacterium tuberculosis H37Rv.

In assay [28] the target is Potassium channel subfamily K member 9 (Homo sapiens, UniProt Q9NPC2). Description: TASK3 (KCNK9) channel inhibitors, thallium flux, SAR follow-up, selectivity assay for TASK1 inhibitor project, cell-based, FluxOR thallium flux, concentration-response (AID 652211).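 Also: potency is for inhibitors of the channel.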 The format is functional.
Another assay concerns Vero. Kind of assay: Vero cell toxicity, dose response, cytotoxicity control, plate reader, cherry-pick samples (AID 687020). Format: functional, cell-based. As to conditions: Chlorocebus sabaeus.
Assay [29] has as its target 5-hydroxytryptamine receptor 2A (Mus musculus, UniProt P35363). Format: functional, cell-based.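 Also: CHO-K1 cells with tagged receptor and beta-arrestin; agonist potency measured as compound-induced activation of the receptor.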
Another assay has as its target Mu-type opioid receptor (Homo sapiens, UniProt P35372). Format: functional, cell-based.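 Also: U2OS cells with beta-arrestin recruitment to OPRM1 by beta-gal complementation.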

SMILES strings stand for the structures. Active and inactive are the calls of the source.

T3 sequence (Q00975 whole entry): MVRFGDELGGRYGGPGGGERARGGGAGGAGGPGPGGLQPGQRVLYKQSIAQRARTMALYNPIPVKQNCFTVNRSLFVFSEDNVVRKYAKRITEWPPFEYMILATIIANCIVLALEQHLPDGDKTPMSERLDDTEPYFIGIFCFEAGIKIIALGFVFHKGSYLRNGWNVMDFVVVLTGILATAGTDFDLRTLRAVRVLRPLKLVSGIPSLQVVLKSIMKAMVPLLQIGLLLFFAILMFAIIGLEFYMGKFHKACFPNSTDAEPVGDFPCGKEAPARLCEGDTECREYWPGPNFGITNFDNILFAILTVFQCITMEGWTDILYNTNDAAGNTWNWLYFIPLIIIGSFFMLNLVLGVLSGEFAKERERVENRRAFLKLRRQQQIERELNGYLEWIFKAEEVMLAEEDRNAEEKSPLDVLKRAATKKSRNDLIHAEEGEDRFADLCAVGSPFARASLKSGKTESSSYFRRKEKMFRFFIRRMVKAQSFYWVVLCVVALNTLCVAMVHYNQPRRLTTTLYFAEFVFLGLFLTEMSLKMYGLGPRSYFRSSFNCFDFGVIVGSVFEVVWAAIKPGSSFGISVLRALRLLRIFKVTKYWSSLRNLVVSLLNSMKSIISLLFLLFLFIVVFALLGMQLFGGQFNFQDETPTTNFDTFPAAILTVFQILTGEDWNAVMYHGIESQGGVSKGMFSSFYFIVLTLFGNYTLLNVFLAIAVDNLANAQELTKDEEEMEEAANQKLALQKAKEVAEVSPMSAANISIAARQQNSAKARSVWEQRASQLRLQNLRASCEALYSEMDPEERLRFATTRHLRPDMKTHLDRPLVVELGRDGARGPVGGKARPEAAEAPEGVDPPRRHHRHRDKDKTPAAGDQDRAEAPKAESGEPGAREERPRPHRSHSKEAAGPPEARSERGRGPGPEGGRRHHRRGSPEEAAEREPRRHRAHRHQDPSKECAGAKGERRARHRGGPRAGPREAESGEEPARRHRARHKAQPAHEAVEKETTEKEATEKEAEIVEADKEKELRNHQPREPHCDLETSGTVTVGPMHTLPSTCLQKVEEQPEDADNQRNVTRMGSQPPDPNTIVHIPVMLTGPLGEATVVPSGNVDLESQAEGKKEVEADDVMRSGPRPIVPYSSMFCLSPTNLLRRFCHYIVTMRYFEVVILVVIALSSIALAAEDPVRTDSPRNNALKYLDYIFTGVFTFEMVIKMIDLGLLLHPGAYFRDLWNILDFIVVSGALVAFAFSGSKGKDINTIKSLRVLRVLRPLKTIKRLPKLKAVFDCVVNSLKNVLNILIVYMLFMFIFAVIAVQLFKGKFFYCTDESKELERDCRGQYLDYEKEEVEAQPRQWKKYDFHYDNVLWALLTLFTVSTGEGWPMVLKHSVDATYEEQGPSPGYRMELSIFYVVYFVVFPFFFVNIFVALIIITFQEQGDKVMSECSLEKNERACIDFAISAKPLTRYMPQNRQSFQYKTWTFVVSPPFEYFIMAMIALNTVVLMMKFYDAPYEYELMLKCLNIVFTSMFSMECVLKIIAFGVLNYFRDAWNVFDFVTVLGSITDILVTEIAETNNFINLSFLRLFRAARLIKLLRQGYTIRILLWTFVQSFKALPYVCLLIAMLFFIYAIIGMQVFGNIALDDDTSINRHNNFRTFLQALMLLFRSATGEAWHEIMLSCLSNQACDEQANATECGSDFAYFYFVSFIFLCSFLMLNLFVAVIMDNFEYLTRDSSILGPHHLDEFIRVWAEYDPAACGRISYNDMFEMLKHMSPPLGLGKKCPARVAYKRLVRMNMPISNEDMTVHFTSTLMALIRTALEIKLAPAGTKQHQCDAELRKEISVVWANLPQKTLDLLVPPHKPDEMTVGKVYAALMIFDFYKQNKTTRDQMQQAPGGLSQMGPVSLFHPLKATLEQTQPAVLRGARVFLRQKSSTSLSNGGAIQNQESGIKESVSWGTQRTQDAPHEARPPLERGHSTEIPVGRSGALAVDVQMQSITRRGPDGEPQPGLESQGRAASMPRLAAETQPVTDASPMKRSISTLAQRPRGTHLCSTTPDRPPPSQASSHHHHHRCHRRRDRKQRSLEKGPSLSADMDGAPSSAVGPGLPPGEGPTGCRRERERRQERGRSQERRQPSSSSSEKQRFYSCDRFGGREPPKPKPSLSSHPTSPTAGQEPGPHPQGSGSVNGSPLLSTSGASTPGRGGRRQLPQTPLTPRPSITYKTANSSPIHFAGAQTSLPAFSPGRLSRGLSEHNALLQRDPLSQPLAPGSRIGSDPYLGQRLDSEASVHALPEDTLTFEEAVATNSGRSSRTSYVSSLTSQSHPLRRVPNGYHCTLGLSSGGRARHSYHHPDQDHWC
T3 sequence (Q02410 whole entry): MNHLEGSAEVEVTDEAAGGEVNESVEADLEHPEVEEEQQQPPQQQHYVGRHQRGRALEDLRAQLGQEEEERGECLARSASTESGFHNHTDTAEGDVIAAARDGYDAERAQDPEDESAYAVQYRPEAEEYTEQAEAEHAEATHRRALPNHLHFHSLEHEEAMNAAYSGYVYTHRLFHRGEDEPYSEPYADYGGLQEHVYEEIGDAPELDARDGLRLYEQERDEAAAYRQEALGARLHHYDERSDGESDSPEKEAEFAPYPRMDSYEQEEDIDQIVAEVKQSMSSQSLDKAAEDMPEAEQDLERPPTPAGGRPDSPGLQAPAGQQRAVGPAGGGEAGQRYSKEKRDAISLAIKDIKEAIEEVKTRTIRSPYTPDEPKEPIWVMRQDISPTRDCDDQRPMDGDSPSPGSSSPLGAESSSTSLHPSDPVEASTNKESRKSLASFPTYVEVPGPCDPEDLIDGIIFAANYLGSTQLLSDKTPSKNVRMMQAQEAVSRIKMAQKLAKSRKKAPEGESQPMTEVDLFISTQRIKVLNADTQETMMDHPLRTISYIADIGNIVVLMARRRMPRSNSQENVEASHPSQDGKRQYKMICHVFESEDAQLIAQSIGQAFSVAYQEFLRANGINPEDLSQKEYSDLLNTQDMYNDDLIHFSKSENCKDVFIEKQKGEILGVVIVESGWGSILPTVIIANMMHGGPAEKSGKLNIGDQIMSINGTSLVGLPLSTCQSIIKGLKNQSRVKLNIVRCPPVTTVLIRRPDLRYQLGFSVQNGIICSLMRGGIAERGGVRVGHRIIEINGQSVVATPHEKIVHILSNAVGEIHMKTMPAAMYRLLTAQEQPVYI
Photoreceptor-specific nuclear receptor, sequence (Q9Y5X4 whole entry): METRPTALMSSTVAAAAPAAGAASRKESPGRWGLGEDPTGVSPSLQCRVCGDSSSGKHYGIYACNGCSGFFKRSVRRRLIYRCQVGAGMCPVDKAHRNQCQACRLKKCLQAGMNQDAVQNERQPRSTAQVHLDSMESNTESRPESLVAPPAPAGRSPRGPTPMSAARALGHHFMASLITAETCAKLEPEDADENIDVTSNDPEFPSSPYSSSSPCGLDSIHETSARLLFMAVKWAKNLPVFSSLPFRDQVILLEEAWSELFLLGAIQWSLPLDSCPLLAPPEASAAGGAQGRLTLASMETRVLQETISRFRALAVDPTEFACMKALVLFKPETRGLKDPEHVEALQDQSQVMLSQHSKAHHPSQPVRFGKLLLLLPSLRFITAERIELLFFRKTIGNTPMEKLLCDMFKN
Mu-type opioid receptor, sequence (P35372 whole entry): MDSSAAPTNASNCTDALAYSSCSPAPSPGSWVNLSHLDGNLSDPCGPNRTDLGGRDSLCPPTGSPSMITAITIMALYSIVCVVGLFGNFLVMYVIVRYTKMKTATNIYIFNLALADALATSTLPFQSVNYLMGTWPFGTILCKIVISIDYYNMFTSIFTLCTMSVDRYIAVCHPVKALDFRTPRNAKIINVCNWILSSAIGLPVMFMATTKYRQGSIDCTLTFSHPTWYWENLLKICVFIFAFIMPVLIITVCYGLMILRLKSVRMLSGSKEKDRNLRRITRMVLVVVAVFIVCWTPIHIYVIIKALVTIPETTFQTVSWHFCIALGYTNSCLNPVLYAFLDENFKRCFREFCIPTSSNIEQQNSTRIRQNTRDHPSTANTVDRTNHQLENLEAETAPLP
Long-chain-fatty-acid--AMP ligase FadD28, sequence (P9WQ59 whole entry): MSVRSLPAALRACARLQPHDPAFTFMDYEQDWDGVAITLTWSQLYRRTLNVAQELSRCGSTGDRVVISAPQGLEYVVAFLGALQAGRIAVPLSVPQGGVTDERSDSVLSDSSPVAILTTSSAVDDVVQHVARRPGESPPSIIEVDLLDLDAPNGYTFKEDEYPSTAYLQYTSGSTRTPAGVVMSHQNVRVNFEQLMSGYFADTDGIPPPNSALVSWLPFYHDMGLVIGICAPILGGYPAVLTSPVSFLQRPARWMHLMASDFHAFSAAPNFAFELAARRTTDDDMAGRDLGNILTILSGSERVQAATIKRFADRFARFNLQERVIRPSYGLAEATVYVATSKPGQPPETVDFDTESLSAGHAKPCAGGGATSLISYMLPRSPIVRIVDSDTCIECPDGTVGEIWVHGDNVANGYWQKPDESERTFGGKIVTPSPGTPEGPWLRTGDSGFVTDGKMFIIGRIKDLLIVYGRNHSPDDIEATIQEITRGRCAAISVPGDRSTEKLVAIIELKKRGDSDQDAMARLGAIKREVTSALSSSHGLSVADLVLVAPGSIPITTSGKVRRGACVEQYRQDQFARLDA
Nuclear receptor subfamily 0 group B member 1, sequence (P51843 whole entry): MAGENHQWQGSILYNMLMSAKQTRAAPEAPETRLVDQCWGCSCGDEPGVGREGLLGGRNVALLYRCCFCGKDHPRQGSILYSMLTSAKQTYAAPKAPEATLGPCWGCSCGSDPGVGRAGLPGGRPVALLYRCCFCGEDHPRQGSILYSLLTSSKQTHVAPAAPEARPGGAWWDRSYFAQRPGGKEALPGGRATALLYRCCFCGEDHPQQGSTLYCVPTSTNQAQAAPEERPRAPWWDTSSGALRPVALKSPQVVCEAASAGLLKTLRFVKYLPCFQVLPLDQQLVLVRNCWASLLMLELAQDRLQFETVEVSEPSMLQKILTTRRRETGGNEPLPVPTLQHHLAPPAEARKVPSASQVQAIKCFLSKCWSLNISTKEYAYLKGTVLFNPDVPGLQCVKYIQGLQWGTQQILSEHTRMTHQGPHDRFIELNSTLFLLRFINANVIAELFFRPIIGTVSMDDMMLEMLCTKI

As for `O=C(c1ccco1)c1cn(Cc2ccccc2Cl)c2ccccc12`, the concentration at half-maximal activity (AC50) in assay [1] is 9.08 µM (active).
For the compound `COCCN1C(=S)N[C@@H](c2ccccc2)C(C(=O)OC)=C1C`, the AC50 in the assay on Cryptococcus neoformans was > 84 µM (inactive).
Regarding `Cc1cc2cc(C#N)c(SCC(=O)Nc3nonc3C)nc2cc1C`, the half-maximal activity concentration (AC50) in assay [2] is 34.9 µM (active).
On to `Cc1ccnc(NC(=O)Cc2ccc(-c3ccccc3)cc2)c1`, for which the IC50 was > 67.5 µM (inactive) in “cells [3]”, 0.741 µM (active) in assay [4] and > 67.5 µM (inactive) in [5]. The EC50 (in the assay “cells [6]”; in assay [7]) was > 67.5 µM (inactive) throughout.
For the compound `Cc1nn(Cc2c(F)c(F)c(F)c(F)c2F)c(C)c1NC(=O)c1ccc(COc2ccccc2Cl)cc1`, in assay [8], the EC50 was > 29.9 µM (inactive). For the same compound, the IC50 in assay [9] is > 29.9 µM (inactive).
Turning to `O=C1c2cccc3c(O)ccc(c23)C(=O)N1Cc1ccco1`, the EC50 on Insulin-degrading enzyme [10], with HEK293 [14] and at Insulin-degrading enzyme [17] was > 54.7 µM (inactive) throughout. The IC50 on Beta-lactamase [11] is 7.5 µM (active); with HEK293 [12], > 89.3 µM (inactive); in assay [13], 9.17 µM (active); at Beta-lactamase [15] it was 14.1 µM (inactive); in assay [16], > 50 µM (inactive). For the same compound, the results for the concentration at half-maximal activity (AC50) at ORF 73 and at Keap1/Nrf2 were 0.966 µM (active) and 1.5 µM (active), respectively.
On to `CC[C@@]1(O)C(=O)OCc2c1cc1n(c2=O)Cc2cc3c(N)cccc3nc2-1` [9-AMINOCAMPTOTHECIN], for which the AC50 is 0.463 µM (active) in assay [18]; 2.47 µM (active) in assay [19]; 0.348 µM (active) in assay [21]; < 0.26 µM (active) in assay [23]; 2.13 µM (active) with INS1; < 0.26 µM (active) in assay [24]. For the same compound, the AC50 at Paired box protein Pax-8 was < 0.26 µM (active). The IC50 in assay [20] was > 80 µM (inactive); in [4], 0.896 µM (active). The EC50 is > 350 µM (not active) in the assay “cells [22]”, 0.00718 µM (active) with BJ, > 350 µM (not active) in “cells [25]” and > 260 µM (inconclusive) in assay [26]. Moreover, the concentration for 50% growth inhibition (GI50) with SN12K1 is < 0.0227 µM (active); with P388, < 0.0119 µM (active); in the assay with P388/ADR, < 0.0174 µM (active).
As to `Cc1cccc(NC(=O)Cn2c(=O)oc3ccccc32)n1`, the AC50 in assay [27] is 27.9 µM (active).
Regarding `CCOc1ccccc1C(=O)Nc1cccc(NC(=O)c2ccccc2OC)c1`, the 50% inhibitory concentration (IC50) in [28] was 1.98 µM (active).
Regarding `O=C(COc1ccccc1)Nc1ccc(N2CCN(C(=O)c3cccs3)CC2)cc1`, in the assay on Vero, the AC50 was 35.4 µM (active).
As to `CN1C[C@H](CO)C[C@@H]2c3cccc4[nH]cc(c34)C[C@H]21`, the EC50 in [29] was 0.0819 µM (active); on Mu-type opioid receptor it was 92.5 µM (inactive).
